Experimental data from PMC6232179 (Scientific Reports, 2018).
Like-named read-outs stand apart in the source and are kept apart here. Blank lines part the entries; values can stand above or below the molecule they belong to.

Experiments:
IRE1α [1] = assay: IRE1α XBP1 splicing luciferase reporter, HEK293 cells; format: cell-based, human; conditions: for COX-2-dependent stimulation of XBP1 mRNA splicing (IRE1α activity): HEK293, COX-2 siRNA vs scrambled, 24 hours, thapsigargin 0.5 µM, tunicamycin 5 µg/ml, DTT 1 mM, n = 16, Fig. 1D
Protocol: HEK293 cells (human embryonic kidney cells; https://web.expasy.org/cellosaurus/CVCL_0045) were maintained under standard tissue culture conditions, including 5% CO2 with high humidity. Tissue culture media included 10% fetal bovine serum in DMEM (Sigma). Cell transfection, analysis of cell viability and luciferase assays were carried out as described previously.
The pRL-IXFL XBP1 splicing reporter was a generous gift from Dr. R. Kaufman (Sanford Burnham Medical Discovery Institute) and contains an internal Renilla control and the nucleotide sequence encoding XBP1 followed by firefly luciferase separated by an internal ribosomal entry site (IRES) initiation region. This reporter will only generate firefly luciferase if the XBP1 sequence is spliced, bringing the firefly luciferase sequence to the correct reading frame.

[2] = target: T1, IRE1-NLD (ER luminal domain of IRE1α) (Homo sapiens, UniProt O75460); assay: SPR, binding to immobilized IRE1-NLD; conditions: CM5 chip, 10 mM Hepes pH 7.4, 150 mM NaCl, 0.005% P20, 30 μl/min, triplicate, 10 µM COX-2, BiP, PDIA6 flowed
T1 construct: the ER luminal domain of IRE1α (IRE1-NLD); His6 (C); KDEL (ER retention signal) (C); made in house; host or cells: COS-1 cells
T1 sequence (O75460 19-443 limits assumed): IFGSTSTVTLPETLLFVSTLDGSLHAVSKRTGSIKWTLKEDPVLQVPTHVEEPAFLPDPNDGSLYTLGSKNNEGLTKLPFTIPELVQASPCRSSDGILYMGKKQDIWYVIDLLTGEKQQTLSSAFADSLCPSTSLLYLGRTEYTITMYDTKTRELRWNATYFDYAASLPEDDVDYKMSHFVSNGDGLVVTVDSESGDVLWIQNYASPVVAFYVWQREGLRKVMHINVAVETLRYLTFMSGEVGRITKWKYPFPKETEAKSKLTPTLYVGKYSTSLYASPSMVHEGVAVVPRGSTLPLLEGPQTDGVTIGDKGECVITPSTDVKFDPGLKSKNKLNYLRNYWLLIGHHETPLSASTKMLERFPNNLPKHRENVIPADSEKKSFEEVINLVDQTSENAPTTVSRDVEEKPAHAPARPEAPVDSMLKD
Protocol: Briefly, a CM5 chip was activated using a 1:1 dilution of EDC:NHS as previously described. Purified protein was diluted in 10 mM NaAc, pH 5 and injected over the activated CM5 chip followed by the blocking solution of 1 M ethanolamine, pH 9. A reference lane with no ligand coupled was generated to subtract background binding. The running buffer was composed of 10 mM Hepes, pH 7.2, 150 mM NaCl, 1 mM EDTA, 0.005% P20, and 2% ethanol. […] For each experiment, the signal was corrected against the control surface response to eliminate any refractive index changes due to buffer change. The data were collected at 25 °C at a flow rate of 30 µl/min to minimize mass transfer effects. Positive (cyclophilin) and negative controls (carbonic anhydrase) were included. Kinetic analysis was performed using the BiaEvaluation software (GE Life Sciences) with a 1:1 Langmuir binding model. Association and dissociation rates and affinity (KD) were calculated for each experiment and averaged. The binding response signals in RUs were continuously recorded and presented graphically as a function of time. For SPR analysis of COX-2 interaction with IRE1-NLD, the carboxymethylated dextran (CMD) surface of a CM5 chip was activated using a 1:1 dilution of EDC:NHS as previously described. Purified IRE1-NLD was captured at a flow rate of 5 μl/min to a total of ~1500 Response Units (RU). […]

IRE1-NLD = assay: MST, COX-2 titrated to RED-labeled IRE1-NLD; format: binding; conditions: red labelled IRE1-NLD, Suppl. Fig. S9
Protocol: (§1) MST was carried out using a Monolith NT.115 instrument (NanoTemper). To evaluate COX-2 binding to IRE1-NLD, an increasing concentration of purified COX-2 protein (0–10 µM) was incubated with RED-labeled purified IRE1-NLD protein (NanoTemper; as per manufacturer’s protocol). The reverse was also performed, with RED-labeled purified COX-2 incubated with an increasing concentration of purified IRE1-NLD. Positive (cyclophilin A) and negative controls (carbonic anhydrase) were included. […] Positive (cyclophilin A) and negative controls (carbonic anhydrase) were included. […] Experiments were done in triplicate and data evaluation was performed using the Monolith software (NanoTemper).

IRE1α [3] = assay: Co-immunoprecipitation of endogenous COX-2 and IRE1α, HEK293 cells; format: binding, human; conditions: HEK293, triplicate, Fig. 5A
Protocol: For immunoprecipitation experiments, HEK293 (endogenous IRE1α) or COS-1 cells transfected with the pED-IRE1-NLD-His6-KDEL expression vector were harvested by washing with cold Tris-buffered saline followed by scraping into cold lysis buffer (25 mM Tris-Cl, pH 8.0, 150 mM NaCl, 0.5% Nonidet P-40, and 0.5% sodium deoxycholate). The lysate was incubated on ice for 30 min followed by centrifugation and 30 min incubation at 4 °C with 60 µl of 10% slurry of Protein A/G Sepharose beads (Qiagen) to preclear the lysate. The beads were centrifuged briefly to pellet and washed with five times of cold lysis buffer while the supernatant was transferred to a new Eppendorf tube. For immunoprecipitation of IRE1α, IRE1-NLD or COX-2, 2 µl of anti-IRE1α, anti-His-tag antibodies, COX-2 antibody or an IgG control were added to the supernatant and incubated with rotation overnight at 4 °C. To pull-down the antibody, 100 µl of 10% slurry of Protein A/G Sepharose beads was added and the lysate was incubated 4 hours with rotation at 4 °C. The beads were centrifuged briefly to pellet and washed five times with 1 ml cold lysis buffer. The beads were pelleted, re-suspended in 100 µl SDS-PAGE sample buffer, with 20 µl separated on SDS-PAGE (10% acrylamide), followed by Immunoblot analysis using anti-IRE1α, anti-COX-2, or anti-His-tag antibodies. Experiments were done in triplicate.

COX-2 peroxidase = conditions: stated without reference; cited from earlier work
Excerpt: Next, we carried out XBP1 splicing reporter assays in the presence of inhibitors of COX-2 cyclooxygenase or peroxidase activity.

COX-2 = target: T2, COX-2 (Homo sapiens, UniProt P35354); format: binding
T2 construct: COX-2 cDNA was purchased from OriGene and cloned into pET-22b containing a 6His-tag; 6His; made in house; host or cells: LEMO21 E. coli
T2 sequence (P35354 18-604): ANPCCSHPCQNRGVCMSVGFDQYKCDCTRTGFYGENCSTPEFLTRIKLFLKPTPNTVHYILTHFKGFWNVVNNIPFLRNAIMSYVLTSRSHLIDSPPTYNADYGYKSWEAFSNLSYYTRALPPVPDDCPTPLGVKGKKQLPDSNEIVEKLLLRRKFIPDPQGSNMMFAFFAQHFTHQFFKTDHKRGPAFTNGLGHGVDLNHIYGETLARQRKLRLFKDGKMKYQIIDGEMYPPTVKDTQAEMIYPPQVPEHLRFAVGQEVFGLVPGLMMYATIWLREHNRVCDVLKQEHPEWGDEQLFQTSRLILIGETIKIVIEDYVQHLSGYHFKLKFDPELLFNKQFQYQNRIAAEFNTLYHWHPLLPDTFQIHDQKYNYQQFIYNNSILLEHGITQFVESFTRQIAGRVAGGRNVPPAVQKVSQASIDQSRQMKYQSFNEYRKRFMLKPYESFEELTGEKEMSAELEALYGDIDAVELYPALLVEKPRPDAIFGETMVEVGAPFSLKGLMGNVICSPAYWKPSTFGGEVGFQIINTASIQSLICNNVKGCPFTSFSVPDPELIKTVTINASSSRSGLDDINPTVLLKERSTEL
Protocol: as §1

Molecule: O[C@@H](CS)[C@@H](O)CS [DTT]
- COX-2-dependent stimulation of XBP1 mRNA splicing (IRE1α activity) (IRE1α [1]): did not have any effect on COX-2-dependent stimulation of XBP1 mRNA splicing

Molecule: Cc1ccc(-c2cc(C(F)(F)F)nn2-c2ccc(S(N)(=O)=O)cc2)cc1 [celecoxib]
- XBP1 splicing reporter activity with COX-2 inhibitor (IRE1α [1]): had no effect on the XBP1 splicing activity in the absence or presence of COX-2 silencing

Molecule: C/C=C(/C)C(=O)O[C@H]1C(C)=C2[C@H]([C@@H]1OC(=O)CCCCCCC)[C@@](C)(OC(C)=O)C[C@H](OC(=O)CCC)[C@@]1(O)[C@H]2OC(=O)[C@@]1(C)O [thapsigargin]
- COX-2-dependent stimulation of XBP1 mRNA splicing (IRE1α activity) (IRE1α [1]): did not have any effect on COX-2-dependent stimulation of XBP1 mRNA splicing

- Kd [2]: 880 nM
- binding to IRE1-NLD (MST), wild-type and H374Y (IRE1-NLD): bound to IRE1-NLD
Molecule: COX-2: purified COX-2 protein, 6His-tag, expressed in LEMO21 E. coli cells
- co-immunoprecipitation with endogenous IRE1α (IRE1α [3]): co-immunoprecipitated with endogenous IRE1α

Molecule: sodium ortho-vanadate
- XBP1 splicing reporter activity with COX-2 inhibitor (IRE1α [1]; 20 μM cyclosporine + inhibitor, in absence or presence of COX-2 silencing, Suppl. Fig. S5B): significant reduction of XBP1 splicing in the presence of COX-2, but not when COX-2 was silenced
- COX-2 peroxidase inhibition (COX-2 peroxidase): an inhibitor of COX-2 peroxidase activity
- effect on cyclosporine binding to COX-2 (COX-2): not affected

Molecule: tunicamycin
- COX-2-dependent stimulation of XBP1 mRNA splicing (IRE1α activity) (IRE1α [1]): did not have any effect on COX-2-dependent stimulation of XBP1 mRNA splicing
